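48-hour exposure; five concentrations; linearly interpolated endpoints. TGI is the concentration that stops growth completely.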
Experiments:
Experiment in all cases: inhibition of tumour cell growth, NCI panel, 48 h
786-0 renal = tested on: 786-0 renal
A498 renal = tested on: A498 renal
A549 NSCLC = tested on: A549 NSCLC
ACHN renal = tested on: ACHN renal
BT-549 breast = tested on: BT-549 breast
CAKI-1 renal = tested on: CAKI-1 renal
CCRF-CEM leukemia = tested on: CCRF-CEM leukemia
COLO 205 colon = tested on: COLO 205 colon
DU-145 prostate = tested on: DU-145 prostate
EKVX NSCLC = tested on: EKVX NSCLC
HCC-2998 colon = tested on: HCC-2998 colon
HCT-116 colon = tested on: HCT-116 colon
HCT-15 colon = tested on: HCT-15 colon
HL-60(TB) leukemia = tested on: HL-60(TB) leukemia
HOP-62 NSCLC = tested on: HOP-62 NSCLC
HOP-92 NSCLC = tested on: HOP-92 NSCLC
HS 578T breast = tested on: HS 578T breast
HT29 colon = tested on: HT29 colon
IGROV1 ovarian = tested on: IGROV1 ovarian
K-562 leukemia = tested on: K-562 leukemia
KM12 colon = tested on: KM12 colon
LOX IMVI melanoma = tested on: LOX IMVI melanoma
M14 melanoma = tested on: M14 melanoma
MALME-3M melanoma = tested on: MALME-3M melanoma
MCF7 breast = tested on: MCF7 breast
MDA-MB-231 breast = tested on: MDA-MB-231 breast
MDA-MB-435 = tested on: MDA-MB-435
MDA-N = tested on: MDA-N
MOLT-4 leukemia = tested on: MOLT-4 leukemia
NCI-H226 lung = tested on: NCI-H226 lung
NCI-H23 lung = tested on: NCI-H23 lung
NCI-H460 lung = tested on: NCI-H460 lung
NCI-H522 lung = tested on: NCI-H522 lung
NCI/ADR-RES ovarian = tested on: NCI/ADR-RES ovarian
OVCAR-3 ovarian = tested on: OVCAR-3 ovarian
OVCAR-4 ovarian = tested on: OVCAR-4 ovarian
OVCAR-5 ovarian = tested on: OVCAR-5 ovarian
OVCAR-8 ovarian = tested on: OVCAR-8 ovarian
PC-3 prostate = tested on: PC-3 prostate
RPMI-8226 leukemia = tested on: RPMI-8226 leukemia
RXF 393 renal = tested on: RXF 393 renal
SF-268 CNS = tested on: SF-268 CNS
SF-295 CNS = tested on: SF-295 CNS
SK-MEL-2 melanoma = tested on: SK-MEL-2 melanoma
SK-MEL-28 melanoma = tested on: SK-MEL-28 melanoma
SK-MEL-5 melanoma = tested on: SK-MEL-5 melanoma
SK-OV-3 ovarian = tested on: SK-OV-3 ovarian
SN12C renal = tested on: SN12C renal
SNB-19 CNS = tested on: SNB-19 CNS
SNB-75 CNS = tested on: SNB-75 CNS
SW-620 colon = tested on: SW-620 colon
T-47D breast = tested on: T-47D breast
TK-10 renal = tested on: TK-10 renal
U251 CNS = tested on: U251 CNS
UACC-257 melanoma = tested on: UACC-257 melanoma
UACC-62 melanoma = tested on: UACC-62 melanoma
UO-31 renal = tested on: UO-31 renal
SR leukemia = tested on: SR leukemia
SF-539 CNS = tested on: SF-539 CNS

CC1OC(O[C@H]2C3C=CO[C@@H](OC4OC(CO)C(O)C(O)C4O)C3[C@@]3(COC(=O)/C=C/c4ccccc4)O[C@@H]23)C(O)C(O)C1O (some centres not stated)
TGI (786-0 renal): > 100 µM | TGI (A498 renal): > 100 µM | TGI (A549 NSCLC): > 100 µM | TGI (ACHN renal): > 100 µM | TGI (BT-549 breast): > 100 µM | TGI (CAKI-1 renal): > 100 µM | TGI (CCRF-CEM leukemia): > 100 µM | TGI (COLO 205 colon): > 100 µM | TGI (DU-145 prostate): > 100 µM | TGI (EKVX NSCLC): > 100 µM | TGI (HCC-2998 colon): > 100 µM | TGI (HCT-116 colon): > 100 µM | TGI (HCT-15 colon): > 100 µM | TGI (HL-60(TB) leukemia): > 100 µM | TGI (HOP-62 NSCLC): > 100 µM | TGI (HOP-92 NSCLC): > 100 µM | TGI (HS 578T breast): > 100 µM | TGI (HT29 colon): > 100 µM | TGI (IGROV1 ovarian): > 100 µM | TGI (K-562 leukemia): > 100 µM | TGI (KM12 colon): > 100 µM | TGI (LOX IMVI melanoma): > 100 µM | TGI (M14 melanoma): > 100 µM | TGI (MALME-3M melanoma): > 100 µM | TGI (MCF7 breast): > 100 µM | TGI (MDA-MB-231 breast): > 100 µM | TGI (MDA-MB-435): > 100 µM | TGI (MDA-N): > 100 µM | TGI (MOLT-4 leukemia): > 100 µM | TGI (NCI-H226 lung): > 100 µM | TGI (NCI-H23 lung): > 100 µM | TGI (NCI-H460 lung): > 100 µM | TGI (NCI-H522 lung): > 100 µM | TGI (NCI/ADR-RES ovarian): > 100 µM | TGI (OVCAR-3 ovarian): > 100 µM | TGI (OVCAR-4 ovarian): > 100 µM | TGI (OVCAR-5 ovarian): > 100 µM | TGI (OVCAR-8 ovarian): > 100 µM | TGI (PC-3 prostate): > 100 µM | TGI (RPMI-8226 leukemia): > 100 µM | TGI (RXF 393 renal): > 100 µM | TGI (SF-268 CNS): > 100 µM | TGI (SF-295 CNS): > 100 µM | TGI (SK-MEL-2 melanoma): > 100 µM | TGI (SK-MEL-28 melanoma): > 100 µM | TGI (SK-MEL-5 melanoma): > 100 µM | TGI (SK-OV-3 ovarian): > 100 µM | TGI (SN12C renal): > 100 µM | TGI (SNB-19 CNS): > 100 µM | TGI (SNB-75 CNS): > 100 µM | TGI (SW-620 colon): > 100 µM | TGI (T-47D breast): > 100 µM | TGI (TK-10 renal): > 100 µM | TGI (U251 CNS): > 100 µM | TGI (UACC-257 melanoma): > 100 µM | TGI (UACC-62 melanoma): > 100 µM | TGI (UO-31 renal): > 100 µM

CC(C)C1=CC23CCC4C(C)(C(=O)O)CCCC4(C)C2CC1C1C(=O)N(CCCCCCN2C(=O)C4C5CC6C7(C)CCCC(C)(C(=O)O)C7CCC6(C=C5C(C)C)C4C2=O)C(=O)C13 (configuration not stated)
TGI (A498 renal): 24.3 µM | TGI (A549 NSCLC): 45.3 µM | TGI (ACHN renal): 22.8 µM | TGI (CCRF-CEM leukemia): 37.7 µM | TGI (EKVX NSCLC): 21.6 µM | TGI (HCC-2998 colon): 27.1 µM | TGI (HCT-116 colon): 20.9 µM | TGI (HCT-15 colon): 30.4 µM | TGI (HL-60(TB) leukemia): 82.6 µM | TGI (HOP-92 NSCLC): 36.2 µM | TGI (HS 578T breast): 34.9 µM | TGI (HT29 colon): 13.8 µM | TGI (K-562 leukemia): > 100 µM | TGI (KM12 colon): 23.9 µM | TGI (M14 melanoma): 27.5 µM | TGI (MALME-3M melanoma): 31.2 µM | TGI (MCF7 breast): 21.7 µM | TGI (MDA-MB-231 breast): 36.8 µM | TGI (MDA-MB-435): 17.8 µM | TGI (MDA-N): 28.4 µM | TGI (MOLT-4 leukemia): 30.1 µM | TGI (NCI-H23 lung): 14.9 µM | TGI (NCI-H522 lung): 26.6 µM | TGI (OVCAR-3 ovarian): 26.8 µM | TGI (OVCAR-4 ovarian): 34.3 µM | TGI (OVCAR-5 ovarian): 37.4 µM | TGI (OVCAR-8 ovarian): 24.9 µM | TGI (PC-3 prostate): 19 µM | TGI (RPMI-8226 leukemia): > 100 µM | TGI (RXF 393 renal): 28.3 µM | TGI (SF-268 CNS): 26.8 µM | TGI (SK-MEL-2 melanoma): 28.2 µM | TGI (SK-MEL-28 melanoma): 23.6 µM | TGI (SK-MEL-5 melanoma): 26.9 µM | TGI (SN12C renal): 32.4 µM | TGI (SNB-19 CNS): 34.8 µM | TGI (SR leukemia): 34.1 µM | TGI (SW-620 colon): 33.4 µM | TGI (T-47D breast): 41.5 µM | TGI (TK-10 renal): 31 µM | TGI (U251 CNS): 15.7 µM | TGI (UACC-62 melanoma): > 100 µM

CC(C)Oc1cccc(N2C(=NCc3c[nH]c4ccccc34)Nc3ccncc3S2(=O)=O)c1
TGI (786-0 renal): > 100 µM | TGI (A498 renal): > 100 µM | TGI (A549 NSCLC): > 100 µM | TGI (ACHN renal): > 100 µM | TGI (BT-549 breast): > 100 µM | TGI (CAKI-1 renal): > 100 µM | TGI (CCRF-CEM leukemia): > 100 µM | TGI (COLO 205 colon): 29.4 µM | TGI (DU-145 prostate): > 100 µM | TGI (EKVX NSCLC): 79 µM | TGI (HCC-2998 colon): 97.9 µM | TGI (HCT-116 colon): > 100 µM | TGI (HCT-15 colon): > 100 µM | TGI (HL-60(TB) leukemia): > 100 µM | TGI (HOP-62 NSCLC): > 100 µM | TGI (HOP-92 NSCLC): 56.6 µM | TGI (HS 578T breast): 81.6 µM | TGI (HT29 colon): > 100 µM | TGI (IGROV1 ovarian): > 100 µM | TGI (K-562 leukemia): > 100 µM | TGI (KM12 colon): > 100 µM | TGI (LOX IMVI melanoma): > 100 µM | TGI (M14 melanoma): 62.6 µM | TGI (MALME-3M melanoma): 58.8 µM | TGI (MCF7 breast): > 100 µM | TGI (MDA-MB-435): > 100 µM | TGI (MDA-N): > 100 µM | TGI (MOLT-4 leukemia): 96.7 µM | TGI (NCI-H226 lung): > 100 µM | TGI (NCI-H23 lung): > 100 µM | TGI (NCI-H460 lung): 77.6 µM | TGI (NCI-H522 lung): 87.2 µM | TGI (NCI/ADR-RES ovarian): 97.5 µM | TGI (OVCAR-3 ovarian): 56.1 µM | TGI (OVCAR-4 ovarian): > 100 µM | TGI (OVCAR-5 ovarian): > 100 µM | TGI (OVCAR-8 ovarian): > 100 µM | TGI (PC-3 prostate): 83.4 µM | TGI (RPMI-8226 leukemia): 30 µM | TGI (RXF 393 renal): > 100 µM | TGI (SF-268 CNS): > 100 µM | TGI (SF-295 CNS): > 100 µM | TGI (SF-539 CNS): > 100 µM | TGI (SK-MEL-2 melanoma): 51.3 µM | TGI (SK-MEL-28 melanoma): > 100 µM | TGI (SK-MEL-5 melanoma): 27.7 µM | TGI (SK-OV-3 ovarian): > 100 µM | TGI (SN12C renal): > 100 µM | TGI (SNB-19 CNS): > 100 µM | TGI (SNB-75 CNS): 67.7 µM | TGI (SR leukemia): > 100 µM | TGI (SW-620 colon): > 100 µM | TGI (T-47D breast): 85.2 µM | TGI (TK-10 renal): 97.4 µM | TGI (U251 CNS): > 100 µM | TGI (UACC-257 melanoma): > 100 µM | TGI (UACC-62 melanoma): 93.5 µM | TGI (UO-31 renal): > 100 µM

Reference: PubChem BioAssay (NCI)
